Key:
Assay type in all cases: in vivo
wheat (Norin 61) [1] = experiment: Test Example 1: wheat seeds on filter paper under 125 mM sodium chloride salt stress; settings: for Foliage Length / Root Length / Root Number of roots / Foliage Recovery percentage / Root Recovery percentage: after 6 days; for Foliage Length / Root Length / Root Number of roots: average of six seeds; for Foliage Recovery percentage / Root Recovery percentage: relative to Comparative Examples 1a and 1b
Description: A flowable agent containing 10% of the compound of formula (I)-1 was diluted 103 times and 104 times with water to obtain chemical solution 1a and chemical solution 1b, respectively.
(§1) Eight layers of filter paper were placed at the center of a laboratory dish, and seeds (six seeds) of wheat (Norin 61) were placed on the filter paper. Four of these were prepared.
(1) 125 mM sodium chloride and 10 mL of chemical solution 1a were poured into the laboratory dish (Example 1a).
(2) 125 mM sodium chloride and 10 mL of chemical solution 1b were poured into the laboratory dish (Example 1b).
(3) 125 mM sodium chloride and 10 mL of water were poured into the laboratory dish (Comparative Example 1a).
(4) 10 mL of water was poured into the laboratory dish (Comparative Example 1b).
Each laboratory dish was placed in a growth chamber set at 25° C. and light/dark=16/8. After 6 days, the number of roots, the root length, and the foliage length were measured for six seeds in each of (1) to (4).
The recovery percentage was calculated from the following equation:
[formula] • X: Chemical treatment, sodium chloride applied • Y: No chemical treatment, sodium chloride applied • Z: No chemical treatment, no sodium chloride treatment

[2] = system: wheat (variety: Kitahonami); experiment: Test Example 6: wheat pot test, 8 g/L sodium chloride solution poured over soil; settings: 8 g/L NaCl
Description: (1) Example 6a: 8 g/L sodium chloride solution and chemical solution 6a were poured.
(2) Comparative Example 6a: 8 g/L sodium chloride solution and water were poured.
(3) Comparative Example 6b: Water was poured.
Plastic pots were filled with Kannami soil, and five seeds of wheat (variety: Kitahonami) were sowed at the center of each pot (3 cm in depth). Each test was repeated three times.
After sowing, the pots were allowed to stand in a growth chamber (20° C. dark room) for 4 days and then moved to a greenhouse.
A flowable agent containing 5% of a compound of formula (I)-1 was diluted 103 times with water to prepare chemical solution 6, and 17.3 mL of this chemical solution was poured for each pot on the 7th day after sowing (only Example 6a).
From the 10th day after sowing, 8 g/L sodium chloride solution was poured over the soil, 30 mL for each pot, once a day (only Example 6a and Comparative Example 6a).
On the 17th day after sowing, the largest root length (cm), the number of rooted individuals, the plant height (cm), and the top and root dry weights (g) were measured.

soybean (Enrei) = experiment: Test Example 5: soybean pot test, 8 g/L sodium chloride solution poured over soil; settings: 8 g/L NaCl
Description: (§2) (1) Example 5a: 8 g/L sodium chloride solution and chemical solution 5a were poured.
(§3) (2) Comparative Example 5a: 8 g/L sodium chloride solution and water were poured.
(§4) (3) Comparative Example 5b: Water was poured.
(§5) Plastic pots were filled with Kannami soil, and seeds of edible corn (Idaho Sweet 88) and soybean (Enrei) were sowed in their respective pots, three seeds for each pot (3 cm in depth). Each test was repeated three times. The plants were grown with subirrigation in a greenhouse.
(§6) A flowable agent containing 5% of the compound of formula (I)-1 was diluted 103 times with water to prepare chemical solution 5, and 17.3 mL of this chemical solution was poured for each pot on the 8th day after sowing (only Example 5a).
(§7) After the chemical treatment, with a pot without holes placed at the bottom, tap water was misted from above on weekends and holidays, and 50 mL of tap water was poured over the soil for each pot every weekday.
(§8) From the 11th day after sowing, 8 g/L sodium chloride solution was poured over the soil, 50 mL for each pot, every day (only Example 5a and Comparative Example 5a).
(§9) On the 19th day after sowing, the largest root length (cm), the plant height (cm), and the top and root dry weights (g) were measured.

[3] = system: rice (Koshihikari: Oryza sativa); experiment: Test Example 4: rice in Wagner pots under submerged conditions with sodium chloride aqueous solution
Description: In the middle of June, Arakidatsuchi (2 mm sieved, Akagi Engei) was placed in a Wagner pot (1/5000 a), and five grains of dried seed rice (Koshihikari: Oryza sativa) were sown at the center of the Wagner pot at a sowing depth of 3 mm to 5 mm, thus starting raising by direct seeding under submerged conditions. Individuals except for one well-grown individual from which 2 to 3 tillers appeared were cut for thinning with scissors on the 28th day after sowing. Ten pots of these were prepared.
Midseason drainage was performed on the 47th to 49th day after sowing. A flowable agent containing 10% of the compound of formula (I)-1 was diluted 103 times with water to obtain chemical solution 4. […]
The number of withered, dead stems, the number of rolled leaves, the number of crown roots, the amount of water decrease, and the length of leaf tip blight were measured on the 68th day after sowing. […]
The plant height, the number of stems, the culm length, the number of ears, the ear length, the number of whitened unhulled rice grains, the leaf color of flag leaves, and the numbers of flag leaf blights and withered, dead leaves were measured in the heading period or after. […]
The culm length, the number of ears, the ear length, the number of whitened unhulled rice grains, the leaf color of flag leaves, and the numbers of flag leaf blights and withered, dead leaves were measured on the 106th day after sowing. […]

[4] = system: edible corn (Idaho Sweet 88); experiment: Test Example 5: corn pot test, 8 g/L sodium chloride solution poured over soil; settings: 8 g/L NaCl
Description: as §2, §3, §4, §5, §6, §7, §8, §9

corn (P2307) = experiment: Test Example 2: corn seeds on filter paper under 125 mM sodium chloride salt stress
Description: A flowable agent containing 10% of the compound of formula (I)-1 was diluted 106 times with water to obtain chemical solution 2a.
Eight layers of filter paper were placed at the center of a laboratory dish, and seeds (five seeds) of corn (P2307) were placed on the filter paper. Four of these were prepared.
(1) 125 mM sodium chloride and 10 mL of chemical solution 2a were poured into the laboratory dish (Example 2a).
(2) 125 mM sodium chloride and 10 ml of water were poured into the laboratory dish (Comparative Example 2a).
(3) 10 mL of water was poured into the laboratory dish (Comparative Example 2b).
Each laboratory dish was placed in a growth chamber set at 25° C. and light/dark=16/8. After 4 days, the number of roots, the root length, and the foliage length were measured for five seeds in each of (1) to (3). The recovery percentage was calculated in the same manner as in Test Example 1.

wheat (Norin 61) [5] = experiment: Test Example 3: wheat seeds on filter paper under 125 mM sodium chloride salt stress; settings: for Foliage Length / Root Length / Root Number of roots / Foliage Recovery percentage / Root Recovery percentage: after 4 days; for Foliage Recovery percentage / Root Recovery percentage: relative to Comparative Examples 3a and 3b
Description: A flowable agent containing 10% of the compound of formula (I)-1 was diluted 105 times and 107 times with water to obtain chemical solution 3a and chemical solution 3b, respectively.
as §1
(1) 125 mM sodium chloride and 10 mL of chemical solution 2a were poured into the laboratory dish (Example 3a).
(2) 125 mM sodium chloride and 10 mL of chemical solution 2b were poured into the laboratory dish (Example 3b).
(3) 125 mM sodium chloride and 10 ml of water were poured into the laboratory dish (Comparative Example 3a).
(4) 10 mL of water was poured into the laboratory dish (Comparative Example 3b).
Each laboratory dish was placed in a growth chamber set at 25° C. and light/dark=16/8. After 4 days, the number of roots, the root length, and the foliage length were measured for five seeds in each of (1) to (4). The recovery percentage was calculated in the same manner as in Test Example 1.

[6] = 125 mM sodium chloride + 10 mL chemical solution 1a (10% flowable diluted 103 times)
[7] = 125 mM sodium chloride + 10 mL chemical solution 1b (10% flowable diluted 104 times)
[8] = 125 mM sodium chloride + chemical solution 1a (diluted 103 times)
[9] = 125 mM sodium chloride + chemical solution 1b (diluted 104 times)
[10] = 125 mM sodium chloride salt stress, vs salt stress without the compound
[11] = 5% flowable diluted 103 times, 17th day after sowing
[12] = 17.3 mL per pot of 5% flowable diluted 103 times on 7th day, measured 17th day after sowing
[13] = vs salt stress without the compound
[14] = 5% flowable diluted 103 times, 19th day after sowing
[15] = 17.3 mL per pot of 5% flowable diluted 103 times on 8th day, measured 19th day after sowing
[16] = 125 mM sodium chloride + 10 mL chemical solution 2a (10% flowable diluted 106 times), after 4 days, average of five seeds
[17] = 125 mM sodium chloride + chemical solution 2a (diluted 106 times), after 4 days, relative to Comparative Examples 2a and 2b
[18] = 125 mM sodium chloride + 10 mL chemical solution 3a (10% flowable diluted 105 times; b105 prints chemical solution 2a)
[19] = 125 mM sodium chloride + 10 mL chemical solution 3b (10% flowable diluted 107 times; b106 prints chemical solution 2b)
[20] = 125 mM sodium chloride + chemical solution 3a (diluted 105 times)
[21] = 125 mM sodium chloride + chemical solution 3b (diluted 107 times)

Cn1nnnc1C(=NOCc1cccc(NC(=O)OC(C)(C)C)n1)c1ccccc1 [compound of formula (I)-1]
Foliage Length (wheat (Norin 61) [1]; [6]): 68.8 mm | Root Length (wheat (Norin 61) [1]; [6]): 49.6 mm | Root Number of roots (wheat (Norin 61) [1]; [6]): 5.6 | Foliage Length (wheat (Norin 61) [1]; [7]): 64.2 mm | Root Length (wheat (Norin 61) [1]; [7]): 50.2 mm | Root Number of roots (wheat (Norin 61) [1]; [7]): 5.2 | Foliage Recovery percentage (wheat (Norin 61) [1]; [8]): 31.0% | Root Recovery percentage (wheat (Norin 61) [1]; [8]): 8.1% | Foliage Recovery percentage (wheat (Norin 61) [1]; [9]): 15.8% | Root Recovery percentage (wheat (Norin 61) [1]; [9]): 9.1% | Recovery compared with Comparative Example 1a (in words) (wheat (Norin 61) [1]; [10]): more recovery | Largest root length Wheat A: number relative to 100 of Comparative Example 6b [2, 11]: 100 | Number of rooted individuals Wheat A: number relative to 100 of Comparative Example 6b [2, 11]: 104 | Plant height Wheat A: number relative to 100 of Comparative Example 6b [2, 11]: 98 | Root dry weight Wheat A: number relative to 100 of Comparative Example 6b [2, 11]: 94 | Top dry weight Wheat A: number relative to 100 of Comparative Example 6b [2, 11]: 96 | Largest root length Wheat [2, 12]: 18.3 cm | Number of rooted individuals Wheat [2, 12]: 8.0 Number | Plant height Wheat [2, 12]: 29.3 cm | Root dry weight Wheat [2, 12]: 0.034 g | Top dry weight Wheat [2, 12]: 0.059 g | Number of rooted individuals, plant height and root dry weight compared with Comparative Example 6a (in words) [2, 13]: better | Plant height Soybean A: number relative to 100 of Comparative Example 5b (soybean (Enrei); [14]): 101 | Root dry weight Soybean A: number relative to 100 of Comparative Example 5b (soybean (Enrei); [14]): 72 | Root length Soybean A: number relative to 100 of Comparative Example 5b (soybean (Enrei); [14]): 105 | Top dry weight Soybean A: number relative to 100 of Comparative Example 5b (soybean (Enrei); [14]): 91 | Plant height Soybean (soybean (Enrei); [15]): 48.3 cm | Root dry weight Soybean (soybean (Enrei); [15]): 0.15 g | Root length Soybean (soybean (Enrei); [15]): 14.3 cm | Top dry weight Soybean (soybean (Enrei); [15]): 0.72 g | Soybean values compared with Comparative Example 5a (in words) (soybean (Enrei); [13]): better values | Growth and yield measurements, effect of chemical treatment (in words) ([3]; 2 g/L sodium chloride aqueous solution, 28 g ai per 10 a under submerged conditions): same effect was observed | Growth and yield measurements compared with Comparative Example 4a (in words) ([3]; 10 g/L sodium chloride aqueous solution, chemical solution 4, 56 mL per pot, 280 g ai per 10 a, on 50th day after sowing, FIGS. 1 to 14): better values | Plant height Corn A: number relative to 100 of Comparative Example 5b [4, 14]: 91 | Root dry weight Corn A: number relative to 100 of Comparative Example 5b [4, 14]: 90 | Root length Corn A: number relative to 100 of Comparative Example 5b [4, 14]: 96 | Top dry weight Corn A: number relative to 100 of Comparative Example 5b [4, 14]: 83 | Plant height Corn [4, 15]: 37.0 cm | Root dry weight Corn [4, 15]: 0.10 g | Root length Corn [4, 15]: 17.3 cm | Top dry weight Corn [4, 15]: 0.40 g | Corn values compared with Comparative Example 5a (in words) [4, 13]: better values | Foliage Length (corn (P2307); [16]): 17.2 mm | Root Length (corn (P2307); [16]): 38.6 mm | Root Number of roots (corn (P2307); [16]): 5.2 | Foliage Recovery percentage (corn (P2307); [17]): 28.3% | Root Recovery percentage (corn (P2307); [17]): 33.8% | Recovery compared with Comparative Example 2a (in words) (corn (P2307); [10]): more recovery | Foliage Length (wheat (Norin 61) [5]; [18]): 23.3 mm | Root Length (wheat (Norin 61) [5]; [18]): 30.8 mm | Root Number of roots (wheat (Norin 61) [5]; [18]): 4.0 | Foliage Length (wheat (Norin 61) [5]; [19]): 25.0 mm | Root Length (wheat (Norin 61) [5]; [19]): 29.0 mm | Root Number of roots (wheat (Norin 61) [5]; [19]): 4.0 | Foliage Recovery percentage (wheat (Norin 61) [5]; [20]): 0.0% | Root Recovery percentage (wheat (Norin 61) [5]; [20]): 41.8% | Foliage Recovery percentage (wheat (Norin 61) [5]; [21]): 0.0% | Root Recovery percentage (wheat (Norin 61) [5]; [21]): 19.0% | Recovery in the root compared with Comparative Example 3a (in words) (wheat (Norin 61) [5]; [10]): more recovery in the root

— US20250151729A1, “METHOD FOR REDUCING OR PREVENTING EFFECT OF SALT STRESS ON PLANT” (NIPPON SODA CO., LTD, priority 2022, published 2025)
